Assay: xn = mol fraction of the nth substance listed
Settings: 92.3 kPa, Liquid; for viscosity: Concentric cylinders viscometry; for speed of sound: Frequency=3 MHz, Single path-length method; for mass density: Vibrating tube method

OCC(O)CO [glycerol] + O
Settings | mass density, 293.15 K [kg/m3] | mass density, 298.15 K [kg/m3] | speed of sound, 293.15 K [m/s] | speed of sound, 298.15 K [m/s] | viscosity, 293.15 K [mPa·s] | viscosity, 298.15 K [mPa·s]
x1 = 0.011 | 1010.85 | 1009.54 | 1505.6 | 1518.5 | – | –
x1 = 0.021 | 1021.71 | 1020.28 | 1526.4 | 1538 | – | –
x1 = 0.0302 | 1031.17 | 1029.64 | 1544.8 | 1555.4 | – | –
x1 = 0.0398 | 1040.58 | 1038.94 | 1563.4 | 1572.8 | – | –
x1 = 0.0546 | 1054.09 | 1052.3 | 1590.1 | 1598 | – | –
x1 = 0.0651 | 1062.84 | 1060.94 | 1608.2 | 1615 | – | –
x1 = 0.0721 | 1068.61 | 1066.65 | 1619.8 | 1625.8 | – | –
x1 = 0.0793 | 1073.97 | 1071.95 | 1630.9 | 1636.2 | – | –
x1 = 0.0898 | 1081.8 | 1079.69 | 1646.9 | 1651.3 | – | –
x1 = 0.0998 | 1088.82 | 1086.64 | 1661.3 | 1664.9 | 3.277 | 2.631
x1 = 0.1198 | 1101.67 | 1099.36 | 1687.5 | 1689.5 | – | –
x1 = 0.1549 | 1121.66 | 1119.16 | 1727.7 | 1727.3 | 5.662 | 4.416
x1 = 0.2024 | 1143.7 | 1141.01 | 1770.2 | 1767.4 | – | –
x1 = 0.2534 | 1162.81 | 1159.99 | 1804.7 | 1800 | 13.67 | 10.4
x1 = 0.2959 | 1176 | 1173.1 | 1826.9 | 1821 | 19.73 | 14.91
x1 = 0.3504 | 1190.05 | 1187.09 | 1846.7 | 1841.6 | 30.2 | 22.91
x1 = 0.4006 | 1200.88 | 1197.86 | 1863.9 | 1856.1 | 45.08 | 33.73
x1 = 0.4477 | 1209.47 | 1206.42 | 1874.9 | 1866.5 | 63.42 | 46.86
x1 = 0.4983 | 1217.48 | 1214.4 | 1884.4 | 1875.4 | 90.21 | 65.72
x1 = 0.5471 | 1224.33 | 1221.23 | 1891.7 | 1882.4 | 124.25 | 89.21
x1 = 0.6046 | 1231.03 | 1227.93 | 1898.3 | 1888.6 | 182.07 | 126.31
x1 = 0.6469 | 1235.49 | 1232.4 | 1902.4 | 1892.3 | 234.23 | 163.54
x1 = 0.7006 | 1240.52 | 1237.44 | 1906.8 | 1896.3 | 322.03 | 220.14
x1 = 0.7465 | 1244.44 | 1241.37 | 1910.2 | 1899.4 | 419.77 | 283.91
x1 = 0.7942 | 1248.13 | 1245.06 | 1913.5 | 1902.3 | 535.66 | 358.24
x1 = 0.8497 | 1251.95 | 1248.81 | 1916.8 | 1905.2 | 705.87 | 463.79
x1 = 0.8993 | 1254.99 | 1251.84 | 1919.1 | 1907 | 897.16 | 584.38
x1 = 0.9196 | 1256.26 | 1253.1 | 1920.6 | 1908.2 | – | –
x1 = 0.9322 | 1256.97 | 1253.82 | 1921.3 | 1908.7 | – | –
x1 = 0.9462 | 1257.78 | 1254.68 | 1922.1 | 1909.8 | 1125.1 | 725.78
x1 = 0.9562 | 1258.3 | 1255.2 | 1922.6 | 1909.8 | – | –
x1 = 0.9855 | 1259.96 | 1256.87 | 1924.3 | 1911 | – | –
x1 = 1 | 1260.73 | 1257.65 | 1925.5 | 1911.9 | 1408.4 | 900.44
